Consider four molecules from article PMC3261944, “The in Vitro Estrogenic Activities of Polyfluorinated Iodine Alkanes” (Environmental Health Perspectives, 2011).

“Also recorded” adds a separate entry of the source.

For assay [1], the system named is vitellogenin. Further details: method as in Liu et al. (2007). The settings on record: primary cultured tilapia hepatocytes; ref Liu et al. (2007); cited from earlier work.
For assay [2], the system named is vitellogenin. Further details: method as in Ishibashi et al. 2008. The settings on record: male medaka fish; ref Ishibashi et al. 2008; cited from earlier work.
Assay [3] relates to gap junction intercellular communication. On the set-up: method as in Hu et al. 2002; Upham et al. 1998. Particulars: ref Hu et al. 2002; Upham et al. 1998; cited from earlier work.
Assay [4] concerns MCF-7BUS cells. Put plainly: E-screen assay (MCF-7BUS cell proliferation, WST-1). Type of assay: cell-based, Human. As for the experimental part: Cell culture. Human MCF-7BUS breast adenocarcinoma cells and MVLN cells were cultured in 100-mm culture dishes in a humidified atmosphere of 5% CO2 at 37°C. Cells were maintained in Dulbecco’s modified Eagle’s medium (DMEM)/F-12 (Hyclone, Logan, UT, USA) containing 10% fetal bovine serum, 100 U/mL streptomycin-penicillin, 2 mM L-glutamine, and 1% insulin-transferrin-selenium supplement (all from Gibco, Grand Island, NY, USA).
E-screen assay. MCF-7BUS cells were kindly provided by A.M. Soto and C. Sonnenschein (Tufts University School of Medicine, Boston, MA, USA). In response to ERα agonists, the mitotic effect leads to the proliferation of MCF-7BUS cells. […] Cells were trypsinized and plated into the interior 60 wells of 96-well plates at the density of 3,000 cells/well. Before each experiment, cells were starved in steroid-free (SF) medium for 48 hr to minimize the basal hormonal activity during assays. SF medium consisted of phenol red–free DMEM/F-12 (Hyclone) supplemented with 5% dextran-charcoal-treated fetal bovine serum (Hyclone), 100 U/mL streptomycin-penicillin, and 2 mM L-glutamine. […] We used a WST-1 proliferation kit (Roche Diagnostics, Mannheim, Germany) to assess proliferation after 6 days of exposure according to the kit instructions. The WST-1 assay is based on the enzymatic cleavage of the tetrazolium salt WST-1 to formazan by cellular mitochondrial dehydrogenases present in viable cells. The absorbance of the WST-1 solution was detected by a microplate reader (Varioskan Flash, Thermo Fisher Scientific, Waltham, MA, USA) at 450 nm, with the reference wave length at 690 nm. The cell proliferation effect was calculated from the solvent control (0.1% ethanol)-corrected absorbance and expressed as the percentage of maximal absorbance of the positive control. Three replicates were used in each experiment.
The concentration–response analyses were performed with four-parameter logistic curve regression analysis according to the following formula:
y = minimum + (maximum – minimum) ÷ [1 + (x/EC50)^Hill slope], [1]
where y is the response value, x is the log concentration of the test compound, and EC50 is the concentration that induces half of the maximum proliferation effect or luciferase activity.
EC50 values were calculated from this nonlinear regression model. EC20 were calculated as […]
On the technique in general: Tetrazolium assays rely on reduction of a dye to a coloured formazan, in cell work by metabolically active cells.

Regarding `O=S(=O)(O)C(F)(F)C(F)(F)C(F)(F)C(F)(F)C(F)(F)C(F)(F)C(F)(F)C(F)(F)F` [PFOS, perfluorooctane sulfonate], the Vitellogenin expression entry in assay [1] is “induced”. For the same molecule, in assay [2], the Vitellogenin induction result is on record as “did not”. Besides, in assay [3], the “Inhibition of gap junction intercellular communication” value (from here on “Inhibition”) is given as “significantly inhibits”.

Regarding `O=C(O)C(F)(F)C(F)(F)C(F)(F)C(F)(F)C(F)(F)C(F)(F)C(F)(F)F` [PFOA, perfluorooctanoic acid, reference compound], the “E-screen Maximum induction (%)” value in assay [4] (percentage of the maximum proliferation effect of tested compound to that of E2, 6 days exposure) is reported as “NDd (The maximum relative proliferation effect was < 7%)”. Besides, the “Proliferation / estrogenic effect in the E-screen assay (in words)” value in assay [4] (within the tested concentration ranges) was “negative results; also recorded: did not show proliferation effects”. The Vitellogenin expression result in assay [1] was “induced”. For the same molecule, in assay [2], the Vitellogenin induction result is on record as “did not”.

As to `O=S(=O)(O)C(F)(F)C(F)(F)C(F)(F)C(F)(F)F` [perfluorobutanesulfonate], in assay [3], the “Inhibition” value is listed as “did not show effects”.

In the case of `O=S(=O)(O)C(F)(F)C(F)(F)C(F)(F)C(F)(F)C(F)(F)C(F)(F)F` [perfluorohexanesulfonate], the “Inhibition” value in assay [3] is recorded as “did not show effects”.
